Each block holds one compound with its values, some of them ahead of it.
Assays:
MPYS [1] = assay: MPYS oxidation (disulfide bonded homodimer, non-reducing SDS-PAGE); format: cell-based; conditions: ER stress inducer; cells not given
Description: (§1) It was also noticed that after the thiol reductase reaction, a large portion of MPYS occurs in a ˜80 kDa SDS resistant form consistent with the predicted size of a homodimer. The present inventors have shown that MPYS is dimeric in mouse B cells. To determine whether MPYS occurs as a non-disulfide-bonded dimer that becomes […] disulfide bonded upon oxidation, the chemical crosslinker Dithiobis[succinimidyl propionate] (DSP) was used to detect the endogenous MPYS complex in mouse splenocytes. In non-reducing SDS-PAGE, DSP treated MPYS ran as a single band of ˜80 kDa, the predicted size of a MPYS homodimer while non-DSP treated mock (or DTT treated) MPYS ran at the monomer size (˜40 kDa). It was also discovered that Flag-tagged MPYS associates with HA-MPYS when the two were co-expressed. Thus, the ˜80 kDa band seen on the non-reducing gels is a MPYS homodimer. Since this homodimer is sensitive to SDS, its dimerization is not mediated by intermolecular disulfide bonds.
(§2) The appearance of the SDS resistant MPYS homodimer after the thiol reductase reaction indicated the formation of intermolecular disulfide bonds in homodimeric MPYS is a consequence of oxidation. […] […] H2O2) and the thiol reductase reaction can lead to formation of intermolecular disulfide bonds in homodimeric MPYS.

MPYS [2] = molecular target: T1, MPYS (Mus musculus, UniProt Q3TBT3); assay: as above; format: cell-based; conditions: RAW264.7 cells
T1 construct: used to detect the endogenous MPYS complex in mouse splenocytes; endogenous in cells; host or cells: mouse splenocytes; K46 mouse B lymphoma cells; RAW264.7 mouse macrophage cells
T1 sequence (Q3TBT3 1-378): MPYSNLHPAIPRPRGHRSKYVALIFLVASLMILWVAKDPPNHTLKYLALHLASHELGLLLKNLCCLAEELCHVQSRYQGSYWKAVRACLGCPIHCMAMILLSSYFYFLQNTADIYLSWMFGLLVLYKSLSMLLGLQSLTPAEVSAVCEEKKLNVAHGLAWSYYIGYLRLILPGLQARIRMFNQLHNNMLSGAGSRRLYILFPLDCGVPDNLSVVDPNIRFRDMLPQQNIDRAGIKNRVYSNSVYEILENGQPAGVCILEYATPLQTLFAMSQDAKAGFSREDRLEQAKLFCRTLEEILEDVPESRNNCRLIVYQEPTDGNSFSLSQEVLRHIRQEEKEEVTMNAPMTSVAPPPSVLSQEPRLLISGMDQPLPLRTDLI
Description: as §1, §2

K46 B lymphoma cells = assay: MHC II mAb-induced cell death of K46 cells (Annexin V/PI, DiOC6/PI flow cytometry); format: cell-based, murine; conditions: for effect of inhibitor on MHC II mAb-induced death response: K46 cells pre-treated with inhibitor
Protocol: K46 cells were suspended in 5% complete IMDM media at a concentration of 10^6 cells/mL and then transferred to round bottomed 96-well plates (100 μL/well) and cultured at 37° C. for 1 h. Biotinylated MHC II mAbs were added into the wells and incubated for 12 min. Avidin was then added into the wells and cells were cultured for the indicated time. PI (2 μg/mL) and Annexin V-Alexa Fluor 488 (1 μL/100 μL cells) (A-13201, Molecular Probes), or DiOC6 (50 nM) and PI (2 μg/mL) was used to measure apoptotic or dead cells by flow cytometry.
(§3) ERK inhibitor PD98059 (Calbiochem, 513000), AKT inhibitor LY294002 (Calbiochem, 440202), and p38 inhibitor SB203580 (Calbiochem, 559389) were used in this study. The inhibitor was added to cells at 5×10^6 cells/mL and cultured for 4 hrs. Samples were then split into 1×10^6 cells/mL and cell death was induced and measured as above. To inhibit src kinase, PP2 (Calbiochem, 529573) was added into cells and cultured for 30 min before cell death was induced as above.

ERK = assay: MHC II induced ERK activation (phospho-ERK blotting); format: cell-based, murine; conditions: K46 cells; PD98059 at 50 μM
Protocol: as §3
(§4) Cells were lysed in 0.33% CHAPS buffer (150 mM NaCl, 10 mM Tris pH 7.5, 10 mM sodium pyrophosphate, 2 mM Na3VO4, 10 mM NaF, 0.4 mM EDTA, 1 mM PMSF, and 1 μg/mL each of aprotinin, α1-antitrypsin, and leupeptin) (40×10^6/mL) at 4° C. for 1.5 h or overnight. Cell lysates were centrifuged at 12,000 g at 4° C. for 20 min. Supernatants were analyzed on a 10% SDS-PAGE gel. The gel was transferred to a PVDF membrane and proteins were probed with Abs and visualized using an ODYSSEY Infrared Imaging System (LI-COR). […]

[3] = system: calcium mobilization in K46 cells; assay: MHC II mAb-induced calcium mobilization (Indo-1AM); format: cell-based, murine
Protocol: Cells were loaded with Indo-1AM (Molecular Probes, Eugene, Oreg.) for 30 min at 37° C. as recommended by the manufacturer. Anti-MHC II mAb (10 μg/mL) was then added to the suspension for another 12 min at 37° C. before cells were washed and suspended in IMDM supplemented with 2% FCS. The cells (10^6 cells/mL) were analyzed before and after stimulation via cros slinking with avidin (20 μg/mL). Data were analyzed by Flow-Jo software (Tree Star, Inc., San Carlos, Calif.).

[4] = system: tyrosine phosphorylation in K46 cells; assay: MHC II mAb-induced tyrosine phosphorylation (immunoblotting); format: cell-based, murine
Protocol: as §3, §4

IFNβ promoter = assay: MPYS induced IFNβ reporter activation in TLR4-293 cells; format: cell-based, human; conditions: TLR4-293T / TLR4-293GT cells
Protocol: (§5) 293 GT cells and their derivatives (˜1×10^5) were seeded in 24-well dishes and transfected the following day using Effectene transfection reagent kit (Qiagen, cat #301427). Reporter assays were performed as previous described. Id.
(§6) Cells were seeded in 24-well dishes (˜1×10^5/ml) and transfected the following day using Effectene transfection reagent kit (Qiagen, 301427). Reporter assays were performed as previous described by Bin et al., in J Biol. Chem., 2003, 278, 24526-24532. All experiments were repeated at least three times and results are representative.

NFκB = assay: MPYS induced NFκB reporter activation in TLR4-293 cells; format: cell-based, human; conditions: TLR4-293T / TLR4-293GT cells
Protocol: as §5, §6

[5] = system: RAW264.7 macrophage cells; assay: Listeria monocytogenes induced IFNβ response in RAW264.7 cells (IFNβ-luc); format: cell-based, mouse
Protocol: RAW264.7, K46 B lymphoma cells and the 293GT cells were maintained in IMDM supplemented with 5% FBS. 293MT cells were maintained in DMEM (GIBCO, cat: 11965), 5% FBS (Biosource, 200p-500HI), sodium pyruvate (GIBCO 11360, 1 mM), HEPES buffer (GIBCO 15630-080, 10 mM) and 2-ME (50 μM) (Life Technologies, Gaithersburg Md.). The RAW264.7 cells stably expressing the IFNβ-Luciferase construct were generated by co-transfecting RAW264.7 cells with pGL3-IFNβ-Luciferase (Promega) and p-Puromycin plasmids (Clonetch). The stable cell line was established under puromycin selection (4 μg/ml).
RAW264.7 cells expressing the IFNβ-luc construct were infected with Listeria monocytogenes strain 10403S at multiplicity of five bacteria/cell. Cells were washed at 1 h after infection. Live bacterial were killed by addition of gentamicin. Whole cell lysates were prepared 5.5 h after infection. Luciferase activity was read with BD Monolight kit and Synergy reader.

TLR4-293T cells = assay: Measurement of intracellular ROS (H2DCFDA flow cytometry); format: cell-based, human
Protocol: Cells were washed and suspended in PBS, and then culture with H2DCFDA (5 μM) (Invitrogen, D399) for 20 min at 37° C. They were then washed in PBS and the fluorescence was measured by flow cytometry.

Compound: C[C@H]1CCC/C=C/[C@@H]2C[C@H](O)C[C@H]2[C@H](O)/C=C/C(=O)O1 [Brefeldin A]
formation of oxidized MPYS (MPYS [1]): generated oxidized MPYS

formation of oxidized MPYS (MPYS [2]): led to the formation of oxidized MPYS
Compound: OO [H2O2]

Compound: O=c1cc(N2CCOCC2)oc2c(-c3ccccc3)cccc12 [LY294002]
effect of inhibitor on MHC II mAb-induced death response (K46 B lymphoma cells): no significant effect

Compound: COc1cccc(-c2cc(=O)c3ccccc3o2)c1N [PD98059]
effect on MHC II induced ERK activation (ERK): did not completely inhibit
inhibition of MHC II mediated cell death (K46 B lymphoma cells; inhibitor at 50 μM, K46 cells): about 50%

Compound: CC(C)(C)n1nc(-c2ccc(Cl)cc2)c2c(N)ncnc21 [PP2]
effect on MHC II mAb-induced calcium responses [3]: blocked
effect on MHC II mAb-induced tyrosine phosphorylation ([4]; K46 cells): blocked
effect on MPYS tyrosine phosphorylation and recruitment of SHP-1 and SHIP-1 ([4]; after MHC class II aggregation): blocked
effect on MHC II induced ERK activation (ERK): neither MHC class II-mediated activation of ERK nor apoptosis was inhibited
effect of inhibitor on MHC II mAb-induced death response (K46 B lymphoma cells): remained largely intact

Compound: C[S+]([O-])c1ccc(-c2nc(-c3ccncc3)c(-c3ccc(F)cc3)[nH]2)cc1 (centres unmarked) [SB203580]
effect of inhibitor on MHC II mAb-induced death response (K46 B lymphoma cells): no significant effect

Compound: C=C(C)[C@H]1Cc2c(ccc3c2O[C@@H]2COc4cc(OC)c(OC)cc4[C@@H]2C3=O)O1 [rotenone]
effect on MPYS induced IFNβ reporter activation (IFNβ promoter): completely inhibited
effect on MPYS induced NFκB reporter activation (NFκB): completely inhibited
effect on Listeria monocytogenes induction of IFNβ production [5]: significantly inhibited
formation of oxidized MPYS (MPYS [2]): led to the formation of oxidized MPYS
cellular ROS level (TLR4-293T cells): increased cellular ROS level

formation of oxidized MPYS (MPYS [2]): did not generate oxidized MPYS
Compound: Poly(I:C)
